From patent US8129398B2 (priority 2008, dated 2012)

These molecules were tested against T1, HIV-integrase (Human immunodeficiency virus type 1 group M subtype B, UniProt P12497) (assay: HIV-Integrase Inhibition Activity (SPA bead integration assay with P33 labeled target DNA)). Details: recombinant integrase, class symbols; read-out: in vitro activity.
T1 construct: Recombinant integrase (0.26 ng) was incubated with the beads
Assay type: biochemical
How it was run: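 Strand integration read as bead-proximity CPM after P33 target DNA (0.1 fmol) and inhibitor were added to washed integrase–substrate DNA complexes on SPA beads. Enzyme bound 90 min at 37° C; EDTA (10 mM final) terminated reaction; IC50 graded A/B/C.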
In the case of `CN(C(=O)c1ccncc1)C12CCC(CC1)Cn1c2nc(C(=O)NCc2ccc(F)cc2)c(O)c1=O` [Example 310, 7,10-Ethanopyrimido[1,2-a]azepine-2-carboxamide, N-[(4-fluorophenyl)methyl]-4,6,7,8,9,10-hexahydro-3-hydroxy-10-[methyl(4-pyridinylcarbonyl)amino]-4-oxo-], the IC50 is reported as less than 10 nM.
`O=C(NC12CCC(CC1)Cn1c2nc(C(=O)NCc2ccc(F)cc2)c(O)c1=O)c1ncccn1` [Example 311, 7,10-Ethanopyrimido[1,2-a]azepine-2-carboxamide, N-[(4-fluorophenyl)methyl]-4,6,7,8,9,10-hexahydro-3-hydroxy-4-oxo-10-[(2-pyrimidinylcarbonyl)amino]-] gave an IC50 of less than 10 nM.
With `Cc1cc(CNC(=O)c2nc3n(c(=O)c2O)CC2CCC3(NC(=O)c3cccnc3)CC2)ccc1F` [Example 312, 7,10-Ethanopyrimido[1,2-a]azepine-2-carboxamide, N-[(4-fluoro-3-methylphenyl)methyl]-4,6,7,8,9,10-hexahydro-3-hydroxy-4-oxo-10-[(3-pyridinylcarbonyl)amino]-] the IC50 was less than 10 nM.
Work on `Cc1cc(CNC(=O)c2nc3n(c(=O)c2O)CC2CCC3(NC(=O)c3ccccn3)CC2)ccc1F` [Example 313, 7,10-Ethanopyrimido[1,2-a]azepine-2-carboxamide, N-[(4-fluoro-3-methylphenyl)methyl]-4,6,7,8,9,10-hexahydro-3-hydroxy-4-oxo-10-[(2-pyridinylcarbonyl)amino]-] yielded an IC50 of less than 10 nM.
Molecule `O=C(NC12CCC(CC1)Cn1c2nc(C(=O)NCc2ccc(F)cc2)c(O)c1=O)c1cnc2ccccc2c1` [Example 315, 7,10-Ethanopyrimido[1,2-a]azepine-2-carboxamide, N-[(4-fluorophenyl)methyl]-4,6,7,8,9,10-hexahydro-3-hydroxy-4-oxo-10-[(3-quinolinylcarbonyl)amino]-] has an IC50 of less than 10 nM.
Molecule `O=C(NC12CCC(CC1)Cn1c2nc(C(=O)NCc2ccc(F)cc2)c(O)c1=O)c1ccnc(OCC(F)(F)F)c1` [Example 316, 7,10-Ethanopyrimido[1,2-a]azepine-2-carboxamide, N-[(4-fluorophenyl)methyl]-4,6,7,8,9,10-hexahydro-3-hydroxy-4-oxo-10-[[[2-(2,2,2-trifluoroethoxy)-4-pyridinyl]carbonyl]amino]-] has an IC50 of less than 10 nM.
With `O=C(NC12CCC(CC1)Cn1c2nc(C(=O)NCc2ccc(F)cc2)c(O)c1=O)c1ccnc(N2CCOCC2)c1` [Example 317, 7,10-Ethanopyrimido[1,2-a]azepine-2-carboxamide, N-[(4-fluorophenyl)methyl]-4,6,7,8,9,10-hexahydro-3-hydroxy-10-[[[2-(4-morpholinyl)-4-pyridinyl]carbonyl]amino]-4-oxo-] the IC50 was less than 10 nM.
`CC(=O)Nc1cc(C(=O)NC23CCC(CC2)Cn2c3nc(C(=O)NCc3ccc(F)cc3)c(O)c2=O)ccn1` [Example 318, 7,10-Ethanopyrimido[1,2-a]azepine-2-carboxamide, 10-[[[2-(acetylamino)-4-pyridinyl]carbonyl]amino]-N-[(4-fluorophenyl)methyl]-4,6,7,8,9,10-hexahydro-3-hydroxy-4-oxo-] gave an IC50 of less than 10 nM.
Work on `Cc1cc(CNC(=O)c2nc3n(c(=O)c2O)CC2CCC3(N(C)C(=O)c3cccnc3)CC2)ccc1F` [Example 319, 7,10-Ethanopyrimido[1,2-a]azepine-2-carboxamide, N-[(4-fluoro-3-methylphenyl)methyl]-4,6,7,8,9,10-hexahydro-3-hydroxy-10-[methyl(3-pyridinylcarbonyl)amino]-4-oxo-] yielded an IC50 of less than 10 nM.
`CC(=O)Nc1ccc(C(=O)NC23CCC(CC2)Cn2c3nc(C(=O)NCc3ccc(F)cc3)c(O)c2=O)cn1` [Example 320, 7,10-Ethanopyrimido[1,2-a]azepine-2-carboxamide, 10-[[[6-(acetylamino)-3-pyridinyl]carbonyl]amino]-N-[(4-fluorophenyl)methyl]-4,6,7,8,9,10-hexahydro-3-hydroxy-4-oxo-] was tested, and the IC50 was less than 10 nM.
For `CC(=O)Nc1cncc(C(=O)NC23CCC(CC2)Cn2c3nc(C(=O)NCc3ccc(F)cc3)c(O)c2=O)c1` [Example 321, 7,10-Ethanopyrimido[1,2-a]azepine-2-carboxamide, 10-[[[5-(acetylamino)-3-pyridinyl]carbonyl]amino]-N-[(4-fluorophenyl)methyl]-4,6,7,8,9,10-hexahydro-3-hydroxy-4-oxo-], the IC50 was less than 10 nM.
`CN(C(=O)c1cccnc1)C12CCC(CC1)Cn1c2nc(C(=O)NCc2ccc(F)cc2)c(O)c1=O` [Example 322, 7,10-Ethanopyrimido[1,2-a]azepine-2-carboxamide, N-[(4-fluorophenyl)methyl]-4,6,7,8,9,10-hexahydro-3-hydroxy-10-[methyl(3-pyridinylcarbonyl)amino]-4-oxo] was tested, and the IC50 was less than 10 nM.
Work on `O=C(NC12CCC(CC1)Cn1c2nc(C(=O)NCc2ccc(F)cc2)c(O)c1=O)c1ccc(C(F)(F)F)nc1` [Example 323, 7,10-Ethanopyrimido[1,2-a]azepine-2-carboxamide, N-[(4-fluorophenyl)methyl]-4,6,7,8,9,10-hexahydro-3-hydroxy-4-oxo-10-[[[6-(trifluoromethyl)-3-pyridinyl]carbonyl]amino]-] yielded an IC50 of less than 10 nM.
`O=C(Nc1ccccn1)NC12CCC(CC1)Cn1c2nc(C(=O)NCc2ccc(F)cc2)c(O)c1=O` [Example 324, 7,10-Ethanopyrimido[1,2-a]azepine-2-carboxamide, N-[(4-fluorophenyl)methyl]-4,6,7,8,9,10-hexahydro-3-hydroxy-4-oxo-10-[[(2-pyridinylamino)carbonyl]amino]-] was tested, and the IC50 was less than 10 nM.
Work on `Cc1cc(CNC(=O)c2nc3n(c(=O)c2O)CC2CCC3(NC(=O)Nc3ccccn3)CC2)ccc1F` [Example 325, 7,10-Ethanopyrimido[1,2-a]azepine-2-carboxamide, N-[(4-fluoro-3-methylphenyl)methyl]-4,6,7,8,9,10-hexahydro-3-hydroxy-4-oxo-10-[[(2-pyridinylamino)carbonyl]amino]-] yielded an IC50 of less than 10 nM.
Work on `Cc1cc(CNC(=O)c2nc3n(c(=O)c2O)CC2CCC3(NC(=O)Nc3cccnc3)CC2)ccc1F` [Example 326, 7,10-Ethanopyrimido[1,2-a]azepine-2-carboxamide, N-[(4-fluoro-3-methylphenyl)methyl]-4,6,7,8,9,10-hexahydro-3-hydroxy-4-oxo-10-[[(3-pyridinylamino)carbonyl]amino]-] yielded an IC50 of less than 10 nM.
Molecule `CNC(=O)NC12CCC(CC1)Cn1c2nc(C(=O)NCc2ccc(F)c(C)c2)c(O)c1=O` [Example 327, 7,10-Ethanopyrimido[1,2-a]azepine-2-carboxamide, N-[(4-fluoro-3-methylphenyl)methyl]-4,6,7,8,9,10-hexahydro-3-hydroxy-10-[[(methylamino)carbonyl]amino]-4-oxo-] has an IC50 of less than 10 nM.
`CN(C(=O)N(C)C12CCC(CC1)Cn1c2nc(C(=O)NCc2ccc(F)cc2)c(O)c1=O)c1ccccn1` [Example 328, 7,10-Ethanopyrimido[1,2-a]azepine-2-carboxamide, N-[(4-fluorophenyl)methyl]-4,6,7,8,9,10-hexahydro-3-hydroxy-10-[methyl[(methyl-2-pyridinylamino)carbonyl]amino]-4-oxo-] showed an IC50 of 10 to 100 nM.
Molecule `Cc1cc(CNC(=O)c2nc3n(c(=O)c2O)CC2CCC3(NC(=O)N(C)c3ccccn3)CC2)ccc1F` [Example 329, 7,10-Ethanopyrimido[1,2-a]azepine-2-carboxamide, N-[(4-fluoro-3-methylphenyl)methyl]-4,6,7,8,9,10-hexahydro-3-hydroxy-10-[[(methyl-2-pyridinylamino)carbonyl]amino]-4-oxo-] has an IC50 of less than 10 nM.
`O=C(NC12CCC(CC1)Cn1c2nc(C(=O)NCc2ccc(F)cc2)c(O)c1=O)NS(=O)(=O)c1ccccc1` [Example 330, 7,10-Ethanopyrimido[1,2-a]azepine-2-carboxamide, N-[(4-fluorophenyl)methyl]-4,6,7,8,9,10-hexahydro-3-hydroxy-4-oxo-10-[[[(phenylsulfonyl)amino]carbonyl]amino]-] showed an IC50 of less than 10 nM.
Work on `CNC(=S)NC12CCC(CC1)Cn1c2nc(C(=O)NCc2ccc(F)cc2)c(O)c1=O` [Example 331, 7,10-Ethanopyrimido[1,2-a]azepine-2-carboxamide, N-[(4-fluorophenyl)methyl]-4,6,7,8,9,10-hexahydro-3-hydroxy-10-[[(methylamino)thioxomethyl]amino]-4-oxo-] yielded an IC50 of less than 10 nM.
Work on `O=C(NC(=S)NC12CCC(CC1)Cn1c2nc(C(=O)NCc2ccc(F)cc2)c(O)c1=O)c1ccccc1` [Example 332, 7,10-Ethanopyrimido[1,2-a]azepine-2-carboxamide, 10-[[(benzoylamino)thioxomethyl]amino]-N-[(4-fluorophenyl)methyl]-4,6,7,8,9,10-hexahydro-3-hydroxy-4-oxo-] yielded an IC50 of 10 to 100 nM.
Molecule `NC(=S)NC12CCC(CC1)Cn1c2nc(C(=O)NCc2ccc(F)cc2)c(O)c1=O` [Example 333, 7,10-Ethanopyrimido[1,2-a]azepine-2-carboxamide, 10-[(aminothioxomethyl)amino]-N-[(4-fluorophenyl)methyl]-4,6,7,8,9,10-hexahydro-3-hydroxy-4-oxo-] has an IC50 of less than 10 nM.
In the case of `O=C(NCc1ccc(F)cc1)c1nc2n(c(=O)c1O)CC1CCC2(Nc2ncc[nH]2)CC1` [Example 334, 7,10-Ethanopyrimido[1,2-a]azepine-2-carboxamide, N-[(4-fluorophenyl)methyl]-4,6,7,8,9,10-hexahydro-3-hydroxy-10-(1H-imidazol-2-ylamino)-4-oxo-], the IC50 is reported as less than 10 nM.
Molecule `CN/C(=N\C#N)NC12CCC(CC1)Cn1c2nc(C(=O)NCc2ccc(F)c(C)c2)c(O)c1=O` [Example 335, 7,10-Ethanopyrimido[1,2-a]azepine-2-carboxamide, 10-[[(1Z)-(cyanoamino)(methylamino)methylene]amino]-N-[(4-fluoro-3-methylphenyl)methyl]-4,6,7,8,9,10-hexahydro-3-hydroxy-4-oxo-] has an IC50 of less than 10 nM.
For `CN(C)C(=O)C(=O)NC12CCC(CC1)Cn1c2nc(C(=O)NCCC2CCCN2C)c(O)c1=O` (stereo not shown) [Example 336], the IC50 was greater than 100 nM.
For `CN(C)C(=O)C(=O)NC12CCC(CC1)Cn1c2nc(C(=O)NCCCN2CCCC2=O)c(O)c1=O` [Example 337], the IC50 was greater than 100 nM.
`CN(C)C(=O)C(=O)NC12CCC(CC1)Cn1c2nc(C(=O)NCC2CCCO2)c(O)c1=O` (stereo not shown) [Example 338] showed an IC50 greater than 100 nM.
